Experiments:
[1] = Cytotoxicity against human RD cells assessed as cell viability measured after 5 days by MTS assay; assay type: toxicity, cell-based; conditions: time 5 day
rhinovirus A2 = experiment: Antiviral activity against Rhinovirus 2 infected in HeLa cells assessed as protection against virus induced cytopatheic effect measured after 5 days by MTS assay; assay type: functional, organism-based, Enterovirus; conditions: Rhinovirus A, 2, HeLa, 120 h
Enterovirus A71 [2] = experiment: Antiviral activity against EV-A71 infected in RD cells assessed as protection against virus induced cytopatheic effect measured after 5 days by MTS assay; assay type: functional, organism-based; conditions: Enterovirus A, 120 h
Enterovirus A71 [3] = experiment: Antiviral activity against Enterovirus A71 BrCr harboring VP1_S184T mutant infected in RD cells assessed as protection against virus induced cytopatheic effect measured after 5 days by MTS assay; assay type: functional, organism-based
Enterovirus A71 [4] = experiment: Antiviral activity against EV-A71 genotype B2 11316 infected in RD cells assessed as protection against virus induced cytopatheic effect measured after 5 days by MTS assay; assay type: functional, organism-based; conditions: Enterovirus A, genotype B2 11316, RD, 120 h
[5] = system: Human immunodeficiency virus 2; experiment: Antiviral activity against HIV2 ROD infected in human MT4 cells assessed as protection against virus induced cytopatheic effect measured after 5 days by MTS assay; assay type: functional, organism-based; conditions: Human immunodeficiency virus 2, ROD, MT4, 120 h
Enterovirus A71 [6] = experiment: Antiviral activity against EV-A71 genotype C4 TW/1956/05 infected in RD cells assessed as protection against virus induced cytopatheic effect measured after 5 days by MTS assay; assay type: functional, organism-based; conditions: Enterovirus A, genotype C4 TW/1956/05, RD, 120 h
Enterovirus A71 [7] = experiment: Antiviral activity against Enterovirus A71 BrCr infected in RD cells assessed as protection against virus induced cytopatheic effect measured after 5 days by MTS assay; assay type: functional, organism-based; conditions: Enterovirus A, 120 h
[8] = system: Human immunodeficiency virus 1; experiment: Antiviral activity against HIV1 NL4-3 infected in human MT4 cells assessed as protection against virus induced cytopatheic effect measured after 5 days by MTS assay; assay type: functional, organism-based; conditions: Human immunodeficiency virus 1, NL4-3, MT4, 120 h
Enterovirus A71 [9] = experiment: Antiviral activity against Enterovirus A71 BrCr harboring VP1_P246S mutant infected in RD cells assessed as protection against virus induced cytopatheic effect measured after 5 days by MTS assay; assay type: functional, organism-based
[10] = Selectivity index, ratio of CC50 for human MT4 cells to EC50 for antiviral activity against HIV-1 NL4.3; assay type: toxicity; conditions: read-out: Ratio CC50/EC50
Enterovirus A71 [11] = experiment: Antiviral activity against EV-A71 genotype A BrCr infected in RD cells assessed as protection against virus induced cytopatheic effect measured after 5 days by MTS assay; assay type: functional, organism-based; conditions: 120 h
[12] = Selectivity index, ratio of CC50 for human RD cells to EC50 for antiviral activity against EV-A71; assay type: toxicity; conditions: read-out: Ratio CC50/EC50
Enterovirus A71 [13] = experiment: Antiviral activity against Enterovirus A71 BrCr harboring VP1_S184T_P246S mutant infected in RD cells assessed as protection against virus induced cytopatheic effect measured after 5 days by MTS assay; assay type: functional, organism-based
Coxsackievirus B3 = experiment: Antiviral activity against Coxsackievirus B3 Nancy strain infected in Vero cells assessed as protection against virus induced cytopatheic effect measured after 5 days by MTS assay; assay type: functional, organism-based; conditions: Enterovirus B, 120 h
enterovirus D68 = experiment: Antiviral activity against Enterovirus D68 CU70 infected in HeLa cells assessed as protection against virus induced cytopatheic effect measured after 5 days by MTS assay; assay type: functional, organism-based; conditions: Enterovirus D, 120 h
Enterovirus A71 [14] = experiment: Antiviral activity against EV-A71 genotype B5 TW/70902/08 infected in RD cells assessed as protection against virus induced cytopatheic effect measured after 5 days by MTS assay; assay type: functional, organism-based; conditions: Enterovirus A, genotype B5 TW/70902/08, RD, 120 h
Enterovirus A71 [15] = experiment: Antiviral activity against EV-A71 genotype C2 H08300 461#812 infected in RD cells assessed as protection against virus induced cytopatheic effect measured after 5 days by MTS assay; assay type: functional, organism-based; conditions: Enterovirus A, genotype C2 H08300 461#812, RD, 120 h
[16] = Cytotoxicity against human MT4 cells assessed as cell viability measured after 5 days by MTS assay; assay type: toxicity, cell-based; conditions: time 5 day
rhinovirus B14 = experiment: Antiviral activity against Rhinovirus 14 infected in HeLa cells assessed as protection against virus induced cytopatheic effect measured after 5 days by MTS assay; assay type: functional, organism-based, Enterovirus; conditions: Rhinovirus B, 14, HeLa, 120 h
[17] = Ex vivo biodistribution in ip dosed C57BL/6 mouse intestine measured after 24 hrs by fluorescence analysis; assay type: ADME, organism-based
[18] = Ex vivo biodistribution in iv dosed C57BL/6 mouse intestine measured after 2 hrs by fluorescence analysis; assay type: ADME, organism-based
[19] = Ex vivo biodistribution in ip dosed C57BL/6 mouse intestine measured after 72 hrs by fluorescence analysis; assay type: ADME, organism-based
[20] = Ex vivo biodistribution in ip dosed C57BL/6 mouse lung measured after 24 hrs by fluorescence analysis; assay type: ADME, organism-based
[21] = Ex vivo biodistribution in ip dosed C57BL/6 mouse lung measured after 72 hrs by fluorescence analysis; assay type: ADME, organism-based
[22] = Ex vivo biodistribution in ip dosed C57BL/6 mouse intestine measured after 2 hrs by fluorescence analysis; assay type: ADME, organism-based

O=C(CCC(CCC(=O)NC(Cc1c(-c2cc(C(=O)O)cc(C(=O)O)c2)[nH]c2ccccc12)C(=O)O)(CCC(=O)NC(Cc1c(-c2cc(C(=O)O)cc(C(=O)O)c2)[nH]c2ccccc12)C(=O)O)NC(=O)CCCCCCNC(=O)Nc1cc(C(=O)O)cc(C(=O)O)c1)NC(Cc1c(-c2cc(C(=O)O)cc(C(=O)O)c2)[nH]c2ccccc12)C(=O)O (stereo unspecified)
CC50 at 120 h [1]: > 100 µM | EC50 (rhinovirus A2): > 50 µM | EC50 (Enterovirus A71 [2]): 0.05 µM | EC50 (Enterovirus A71 [3]): 0.3 µM | EC50 (Enterovirus A71 [4]): 0.075 µM | EC50 [5]: 0.05 µM | EC50 (Enterovirus A71 [6]): 0.006 µM | EC50 (Enterovirus A71 [7]): 0.04 µM | EC50 [8]: 1.09 µM | EC50 (Enterovirus A71 [9]): 0.06 µM | selectivity ratio [10]: > 92 | EC50 (Enterovirus A71 [11]): 0.042 µM | selectivity ratio [12]: > 2000 | EC50 (Enterovirus A71 [13]): 0.3 µM | EC50 (Coxsackievirus B3): > 50 µM | EC50 (enterovirus D68): > 50 µM | EC50 (Enterovirus A71 [14]): 0.002 µM | EC50 (Enterovirus A71 [15]): 0.091 µM | CC50 at 120 h [16]: > 100 µM | EC50 (rhinovirus B14): > 50 µM

CC1(CCCCCCC(=O)NC(CCC(=O)NC(Cc2c(-c3cc(C(=O)O)cc(C(=O)O)c3)[nH]c3ccccc23)C(=O)O)(CCC(=O)NC(Cc2c(-c3cc(C(=O)O)cc(C(=O)O)c3)[nH]c3ccccc23)C(=O)O)CCC(=O)NC(Cc2c(-c3cc(C(=O)O)cc(C(=O)O)c3)[nH]c3ccccc23)C(=O)O)C(/C=C/C=C/C=C2/N(CCCS(=O)(=O)O)c3ccc(S(=O)(=O)O)cc3C2(C)C)=[N+](CCCS(=O)(=O)O)c2ccc(S(=O)(=O)O)cc21.[Na+].[Na+].[Na+].[Na+].[Na+].[Na+].[Na+].[Na+].[Na+].[Na+].[Na+].[Na+] (stereo unspecified)
Drug uptake [17]: Active | Drug uptake [18]: Active | Drug uptake [19]: Active | Drug uptake [20]: Active | Drug uptake [21]: Active | Drug uptake [22]: Active

From ChEMBL document CHEMBL5137021, “Organotropic dendrons with high potency as HIV-1, HIV-2 and EV-A71 cell entry inhibitors” (Eur J Med Chem, 2022)
